From patent US6500853B1, “Inhibitors of phospholipase enzymes” (Genetics Institute, LLC, priority 1998, dated 2002) come the findings set out here.

Read-outs that look alike come from different tables or passages of the source.

The inhibition is the drop in the measured response relative to a control, in per cent. The % Inhibition is the share of the control response that was lost under treatment. A lower % Inhibition goes with little suppression.

The assay addresses T1, cPLA2 (Homo sapiens, UniProt P47712).
T1 sequence (P47712 1-749): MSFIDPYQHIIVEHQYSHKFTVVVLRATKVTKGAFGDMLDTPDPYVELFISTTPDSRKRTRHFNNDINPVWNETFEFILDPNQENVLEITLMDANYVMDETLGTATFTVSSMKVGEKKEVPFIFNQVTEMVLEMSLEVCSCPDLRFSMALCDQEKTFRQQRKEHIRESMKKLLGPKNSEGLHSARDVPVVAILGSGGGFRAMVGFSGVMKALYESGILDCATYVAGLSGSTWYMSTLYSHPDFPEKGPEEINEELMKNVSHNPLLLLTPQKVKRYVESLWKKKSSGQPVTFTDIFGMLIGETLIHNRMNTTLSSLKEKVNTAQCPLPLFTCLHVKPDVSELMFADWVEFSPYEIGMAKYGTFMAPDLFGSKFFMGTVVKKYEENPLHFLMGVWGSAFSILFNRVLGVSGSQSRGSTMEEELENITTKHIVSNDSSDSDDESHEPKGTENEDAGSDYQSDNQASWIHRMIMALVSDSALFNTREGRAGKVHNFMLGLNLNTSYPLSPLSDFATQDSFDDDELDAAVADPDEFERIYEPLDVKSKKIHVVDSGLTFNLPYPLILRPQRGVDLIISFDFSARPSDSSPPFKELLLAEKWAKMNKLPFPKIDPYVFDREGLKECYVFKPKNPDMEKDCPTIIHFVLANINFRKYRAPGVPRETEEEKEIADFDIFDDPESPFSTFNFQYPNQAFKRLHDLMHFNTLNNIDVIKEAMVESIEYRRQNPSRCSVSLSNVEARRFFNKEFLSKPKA
The assay can be described thus: Coumarin Assay (cPLA2 inhibition). The assay is classed as biochemical. Particulars: for inhibition at 1.6 µM: CONCENTRATION 1.6 micromolar; for inhibition at 37 µM: CONCENTRATION 37 micromolar. The gist of the method: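 Percent inhibition at the stated concentration, from the rate of 460 nm emission rise (360 nm excitation) per minute. Reaction started by adding 4 μg enzyme to compound and 60 μM 7-hydroxycoumarinyl 6-heptenoate in Hepes buffer pH 7.5 with 1 mM EDTA.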

Where [1] appears, read: CONCENTRATION 50 micromolar, read-out: PERCENT INHIBITION @.

Under “Conc 3.3 uM”, `O=C(O)c1ccc(OCCc2c(CO)n(C(c3ccccc3)c3ccccc3)c3ccc(Cl)cc23)cc1` [Example 151, 4-{2-[1-benzhydryl-5-chloro-2-(hydroxymethyl)-1H-indol-3-yl]ethoxy}benzoic acid] gave an inhibition at 3.3 µM of 50%. `COc1cc(Cc2cn(C(c3ccccc3)c3ccccc3)c3cc(Cl)ccc23)ccc1OCC(=O)O` [Example 121, 2-{4-[(1-benzhydryl-6-chloro-1H-indol-3-yl)methyl]-2-methoxyphenoxy}acetic acid]: the inhibition at 1.6 µM (read-out: PERCENT INHIBITION @) worked out at 20%. Turning to `Cc1c(C(=O)O)c2cc(OCc3ccccc3)ccc2n1Cc1ccc(C(F)(F)F)cc1C(F)(F)F` [Example 107, 5-(benzyloxy)-1-[2,4-bis(trifluoromethyl)benzyl]-2-methyl-1H-indole-3-carboxylic acid], the inhibition at 37 µM (read-out: PERCENT INHIBITION @) turned out to be 50%. In addition, the inhibition at 50 µM under setting [1] amounted to 43%. In addition, under “CONCENTRATION 71 micromolar, read-out: PERCENT INHIBITION @”, the inhibition at 71 µM stood at 50%. For the same molecule, the inhibition at 80 µM (CONCENTRATION 80 micromolar, read-out: PERCENT INHIBITION @) is 50%. As for `COc1ncc(C(c2ccccc2)n2cc(Cc3ccc(C(=O)O)cc3OC)c3ccc(Cl)cc32)c(OC)n1` (centres unmarked) [Example 136, 4-({6-chloro-1-[(2,4-dimethoxy-5-pyrimidinyl)(phenyl)methyl]-1H-indol-3-yl}methyl)-3-methoxybenzoic acid], under “CONCENTRATION 0.4 micromolar, read-out: PERCENT INHIBITION @”, the inhibition at 0.4 µM came to 50%.

Take `Cc1cc(Cc2cn(C(c3ccccc3)c3ccccc3)c3cc(Cl)ccc23)cc(C)c1OCC(=O)O` [Example 117, 2-{4-[(1-benzhydryl-6-chloro-1H-indol-3-yl)methyl]-2,6-dimethylphenoxy}acetic acid]: the inhibition at 1.6 µM (read-out: PERCENT INHIBITION @) was 50%. For the molecule `O=C(O)/C=C/COc1ccc(Cc2cn(C(c3ccccc3)c3ccccc3)c3cc(Cl)ccc23)cc1` [Example 122, (E)-4-{4-[(1-benzhydryl-6-chloro-1H-indol-3-yl)methyl]phenoxy}-2-butenoic acid], the inhibition at 1.25 µM (CONCENTRATION 1.25 micromolar, read-out: PERCENT INHIBITION @) came out at 64%.

Turning to `COc1cc(C(=O)NS(=O)(=O)c2ccccc2C)ccc1Cc1cn(CC2CC2)c2ccc(NC(=O)OC3CCCC3)cc12` [Example 21, Cyclopentyl N-{1-(cyclopropylmethyl)-3-[2-methoxy-4-({[(2-methylphenyl)sulfonyl]amino}carbonyl)benzyl]-1H-indol-5-yl}carbamate], the inhibition at 20 µM (CONCENTRATION 20 micromolar, read-out: PERCENT INHIBITION @) stood at 50%. For `COc1cc(C(=O)O)ccc1Cc1cn(Cc2ccncc2)c2ccc(NC(=O)OC3CCCC3)cc12` [Example 6, 4-{[5-{[(cyclopentyloxy)carbonyl]amino}-1-(4-pyridinylmethyl)-1H-indol-3-yl]methyl}-3-methoxybenzoic acid], under “CONCENTRATION 100 micromolar, read-out: PERCENT INHIBITION @”, the inhibition at 100 µM is 11%. For the same molecule, the inhibition at 200 µM (CONCENTRATION 200 micromolar, read-out: PERCENT INHIBITION @) was 50%. With `O=C(O)C1CC1Cc1cn(C(c2ccccc2)c2ccccc2)c2cc(Cl)c(F)cc12` (centres unmarked) [Example 127, 2-[(1-benzhydryl-6-chloro-5-fluoro-1H-indol-3-yl)methyl]cyclopropanecarboxylic acid], under “CONCENTRATION 1.1 micromolar, read-out: PERCENT INHIBITION @”, the inhibition at 1.1 µM was determined as 50%. As for “3-{4-[2-(1-benzhydryl-5-chloro-2-{[(2,6-difluorobenzyl)oxy]methyl}-1H-indol-3-yl)ethoxy]phenyl}propanoic acid [Example 166]”, the “% Inhibition” value (Conc 0.31 uM) is 58%. Consider `Cc1c(CCS(=O)(=O)c2ccc(C(=O)O)cc2)c2ccc(Cl)cc2n1C(c1ccccc1)c1ccccc1` [Example 140, 4-{[2-(1-benzhydryl-6-chloro-2-methyl-1H-indol-3-yl)ethyl]sulfonyl}benzoic acid], for which the inhibition at 2.5 µM (Conc 2.5 uM, read-out: % Inhibition) was 50%. With `O=C(O)c1ccc(OCCc2c(COCc3ccccc3[N+](=O)[O-])n(C(c3ccccc3)c3ccccc3)c3ccc(Cl)cc23)cc1` [Example 155, 4-[2-(1-benzhydryl-5-chloro-2-{[(2-nitrobenzyl)oxy]methyl}-1H-indol-3-yl)ethoxy]benzoic acid], the inhibition at 2.2 µM (Conc 2.2 uM, read-out: % Inhibition) came out at 50%. For the molecule `O=C(O)CCc1cn(CCCOc2cccc(Cc3ccccc3)c2)c2ccccc12` [Example 83, 3-{1-[3-(3-benzylphenoxy)propyl]-1H-indol-3-yl}propanoic acid], where the note is “CONCENTRATION 48 micromolar, read-out: PERCENT INHIBITION @”, the inhibition at 48 µM was determined as 50%. Moreover, the inhibition at 70 µM (CONCENTRATION 70 micromolar, read-out: PERCENT INHIBITION @) was 50%. As for `COc1cc(C(=O)NS(=O)(=O)c2nn(C)c(=NC(C)=O)s2)ccc1Cc1cn(C(c2ccccc2)c2ccccc2)c2ccc(NC(=O)OC3CCCC3)cc12` [Example 29, cyclopentyl N-(3-{4-[({[5-(acetylimino)-4-methyl-4,5-dihydro1,3,4-thiadiazol-2-yl]sulfonyl}amino)carbonyl]-2-methoxybenzyl}-1-benzhydryl-1H-indol-5-yl)carbamate], the inhibition at 2.5 µM (CONCENTRATION 2.5 micromolar, read-out: PERCENT INHIBITION @) was 50%. Moreover, the inhibition at 3.4 µM (CONCENTRATION 3.4 micromolar, read-out: PERCENT INHIBITION @) is 50%. For the same molecule, the inhibition at 6 µM (CONCENTRATION 6 micromolar, read-out: PERCENT INHIBITION @) turned out to be 87%. Turning to `O=C(O)c1ccc(OCCc2c(COCc3ccccc3)n(C(c3ccccc3)c3ccccc3)c3ccc(Cl)cc23)cc1` [Example 160, 4-(2-{1-benzhydryl-2-[(benzyloxy)methyl]-5-chloro-1H-indol-3-yl}ethoxy)benzoic acid], the inhibition at 2 µM (Conc 2 uM, read-out: % Inhibition) came out at 50%.

`Cc1c(CCOc2ccc(C(=O)O)cc2)c2cc(Br)ccc2n1C(c1ccccc1)c1ccccc1` [Example 145, 4-[2-(1-benzhydryl-5-bromo-2-methyl-1H-indol-3-yl)ethoxy]benzoic acid] registered an inhibition at 2.6 µM (Conc 2.6 uM) of 50%. Regarding `COc1ccc2c(c1)c(CCS(=O)(=O)c1ccc(C(=O)O)cc1)c(C)n2C(c1ccccc1)c1ccccc1` [Example 144, 4-{[2-(1-benzhydryl-5-methoxy-2-methyl-1H-indol-3-yl)ethyl]sulfonyl}benzoic acid], for the setting “Conc 12 uM, read-out: % Inhibition”, the inhibition at 12 µM came to 50%.

In the case of `O=C(Nc1cccc(C(=O)O)c1)C(=O)c1cn(Cc2ccccc2S(=O)(=O)Cc2ccccc2)c2ccccc12` [Example 64, 3-[(2-{1-[2-(benzylsulfonyl)benzyl]-1H-indol-3-yl}-2-oxoacetyl)amino]benzoic acid], the inhibition at 32 µM (CONCENTRATION 32 micromolar, read-out: PERCENT INHIBITION @) is 50%. In addition, under “read-out: PERCENT INHIBITION @”, the inhibition at 37 µM came to 50%. As to `COc1cc(C(=O)O)ccc1Cc1cn(C(c2ccccc2)c2ccc(N)cc2)c2cc(Cl)ccc12` (centres unmarked) [Example 132, ′4-({1-[(4-aminophenyl)(phenyl)methyl]-6-chloro-1H-indol-3-yl}methyl)-3-methoxybenzoic acid], the “PERCENT INHIBITION @” value (CONCENTRATION 0.4 micromolar) was found to be 50%.

Regarding `O=C(O)Cc1cn(CC2CC2)c2ccc(Br)cc12` [Example 77, 2-[5-bromo-1-(cyclopropylmethyl)-1H-indol-3-yl]acetic acid], the inhibition at 160 µM (CONCENTRATION 160 micromolar, read-out: PERCENT INHIBITION @) stood at 50%. Moreover, the inhibition at 180 µM (CONCENTRATION 180 micromolar, read-out: PERCENT INHIBITION @) stood at 50%. On to `O=C(Nc1cccc(C(=O)O)c1)C(=O)c1cn(Cc2ccc(COc3cc(C(F)(F)F)cc(C(F)(F)F)c3)cc2)c2ccccc12` [Example 60, 3-({2-[1-(4-{[3,5-bis(trifluoromethyl)phenoxy]methyl}benzyl)-1H-indol-3yl]-2oxoacetyl}amino)benzoic acid], for which the inhibition at 12.5 µM (CONCENTRATION 12.5 micromolar, read-out: PERCENT INHIBITION @) amounted to 50%. As for `Cc1c(C(=O)O)c2cc(OCc3ccccc3)ccc2n1Cc1ccc2ccccc2c1` [Example 109, 5-(benzyloxy)-2-methyl-1-(2-naphthylmethyl)-1H-indole-3-carboxylic acid], where the note is “CONCENTRATION 50 micromolar”, the “PERCENT INHIBITION @” value was 25%. Under setting [1], the inhibition at 50 µM was found to be 28%.
